Drawing on US20040092552A1, “2-Fluorobenzenesulfonyl compounds for the treatment of inflammation” (priority 2003, published 2004), this text covers melting point for 21 molecules.

SMILES strings stand for the structures. Where a name gives a salt, the structure may show the parent alone.

In the case of `Cc1ccc(-c2cc(C(F)F)nn2-c2ccc(S(N)(=O)=O)c(F)c2)cc1Cl` [Example 3, 4-[5-(3-chloro-4-methylphenyl)-3-(difluoromethyl)-1H-pyrazol-1-yl]-2-fluorobenzenesulfonamide], the melting point (commonly the temperature, or range, at which the solid turns liquid) lay within 160 to 161 °C.

`Cc1onc(-c2ccc(F)cc2)c1-c1ccc(S(N)(=O)=O)c(F)c1` [Example 22, 2-Fluoro-4-[3-(4-fluorophenyl)-5-methyl-4-isoxazolyl]benzenesulfonamide] registered a melting point of 176 to 177 °C.

`Cc1ccc(-c2cc(C(F)(F)F)nn2-c2ccc(S(N)(=O)=O)c(F)c2)cc1` (as salt: trifluoroacetate) [Example 4, 4-[5-(4-Methylphenyl)-3-(trifluoromethyl)-1H-pyrazol-1-yl]-2-fluorobenzenesulfonamide] showed a melting point of 126 to 128 °C.

`Cc1cccc(-n2nc(C(F)(F)F)cc2-c2ccc(S(C)(=O)=O)c(F)c2)c1` [Example 17, 5-[3-Fluoro-4-(methylsulfonyl)phenyl]-1-(3-methylphenyl)-3-(trifluoromethyl)-1H-pyrazole] yielded a melting point of 129 to 130 °C.

Consider `Cc1ccc(-n2nc(C(F)(F)F)cc2-c2ccc(S(C)(=O)=O)c(F)c2)cc1Cl` [Example 15, 1-(3-Chloro-4-methylphenyl)-5-[3-fluoro-4-(methylsulfonyl)phenyl]-3-(trifluoromethyl)-1H-pyrazole], for which the melting point is 144 to 145 °C.

Turning to `CS(=O)(=O)c1ccc(-c2cc(C(F)F)nn2-c2cccc(C(F)(F)F)c2)cc1F` (as salt: trifluoroacetate) [Example 21, 3-(Difluoromethyl)-5-[3-fluoro-4-(methylsulfonyl)-phenyl]-1-[3-(trifluoromethyl)-phenyl]-1H-pyrazole], the melting point fell in the range of 110 to 111 °C.

Regarding `CS(=O)(=O)c1ccc(C2=C(c3ccccc3)C(=O)OC2)cc1F` [Example 24, 4-[3-Fluoro-4-(methylsulfonyl)phenyl]-3-phenyl-2(5H)-furanone], the melting point lay in the range of 161 to 162 °C.

Consider `COc1ccccc1-c1cc(C(F)(F)F)nn1-c1ccc(S(N)(=O)=O)c(F)c1` (as salt: trifluoroacetate) [Example 9, 2-Fluoro-4-[5-(2-methoxyphenyl)-3-(trifluoromethyl)-1H-pyrazol-1-yl]benzenesulfonamide], for which the melting point lay in the range of 159 to 160 °C.

Molecule `CS(=O)(=O)c1ccc(-c2cscc2-c2ccccc2)cc1F` [Example 2, 3-[3-Fluoro-4-(methylsulfonyl)phenyl]-4-phenylthiophene] registered a melting point of 140 to 141 °C.

`COc1ccc(-c2cc(C(F)(F)F)nn2-c2ccc(S(N)(=O)=O)c(F)c2)cc1F` (as salt: trifluoroacetate) [Example 6, 4-[5-(3-Fluoro-4-methoxy)-3-trifluoromethyl-1H-pyrazol-1-yl]-2 fluorobenzenesulfonamide]: the melting point was in the range of 124 to 126 °C.

In the case of `COc1ccc(-c2cc(C(F)F)nn2-c2ccc(S(N)(=O)=O)c(F)c2)cc1F` [Example 10, 4-[3-(Difluoromethyl)-5-(3-fluoro-4-methoxyphenyl)-1H-pyrazol-1-yl]-2-fluorobenzenesulfonamide], the melting point lay within 167 to 169 °C.

Molecule `NS(=O)(=O)c1ccc(-n2nc(C(F)(F)F)cc2-c2ccc(F)cc2)cc1F` (as salt: trifluoroacetate) [Example 8, 2-Fluoro-4-[5-(4-fluorophenyl)-3-(trifluoromethyl)-1H-pyrazol-1-yl]benzenesulfonamide] had a melting point of 127 to 130 °C.

`CS(=O)(=O)c1ccc(-c2cc(C(F)(F)F)nn2C2CCCCC2)cc1F` [Example 12, 1-Cyclohexyl-5-[3-fluoro-4-(methylsulfonyl)phenyl]-3-(trifluoromethyl)-1H-pyrazole] yielded a melting point of 228 to 229 °C.

As for `CS(=O)(=O)c1ccc(-c2cc(C(F)F)nn2C2CCCCC2)cc1F` (as salt: trifluoroacetate) [Example 19, 1-Cyclohexyl-3-(difluoromethyl)-5-[3-fluoro-4-(methylsulfonyl)phenyl]-1H-pyrazole], the melting point lay in the range of 138 to 139 °C.

As for `CS(=O)(=O)c1ccc(-c2cc(C(F)F)nn2-c2ccc(F)cc2)cc1F` (as salt: trifluoroacetate) [Example 18, 3-(Difluoromethyl)-5-[3-fluoro-4-(methylsulfonyl)phenyl]-1-(4-fluorophenyl)-1H-pyrazole], the melting point lay in the range of 201 to 202 °C.

In turn, `NS(=O)(=O)c1ccc(-c2cscc2-c2ccccc2)cc1F` [Example 1, 2-Fluoro-4-(4-phenyl-3-thienyl)benzenesulfonamide] displayed a melting point of 170.9 to 171 °C.

`CS(=O)(=O)c1ccc(-c2cc(C(F)(F)F)nn2-c2ccc(C#N)cc2)cc1F` [Example 16, 4-[5-[3-Fluoro-4-(methylsulfonyl)phenyl]-3-(trifluoromethyl)-1H-pyrazol-1-yl]benzonitrile]: the melting point is 152 to 153 °C.

For the molecule `CS(=O)(=O)c1ccc(-c2cc(C(F)(F)F)nn2-c2ccc(OC(F)(F)F)cc2)cc1F` [Example 14, 5-[3-Fluoro-4-(methylsulfonyl)phenyl]-3-(trifluoromethyl)-1-[4-(trifluoromethoxy)phenyl]-1H-pyrazole], the melting point lay within 110 to 112 °C.

Take `Cc1ccc(-n2nc(C(F)F)cc2-c2ccc(S(C)(=O)=O)c(F)c2)cc1Cl` (as salt: trifluoroacetate) [Example 20, 1-(3-Chloro-4-methylphenyl)-3-(difluoromethyl)-5-[3-fluoro-4-(methylsulfonyl)phenyl]-1H-pyrazole]: the melting point fell in the range of 146 to 147 °C.

Consider `NS(=O)(=O)c1ccc(-n2nc(C(F)(F)F)cc2-c2ccc(Cl)cc2)cc1F` (as salt: trifluoroacetate) [Example 5, 4-[5-(4-Chlorophenyl)-3-trifluoromethyl-1H-pyrazol-1-yl]-2-fluorobenizenesulfonamide], for which the melting point was 140 to 141 °C.

With `CS(=O)(=O)c1ccc(-c2cc(C(F)(F)F)nn2-c2ccc(F)cc2)cc1F` [Example 11, 5-[3-Fluoro-4-(methylsulfonyl)phenyl]-1-(4-fluorophenyl)-3-(trifluoromethyl)-1H-pyrazole], the melting point lay within 228 to 229 °C.
